Results: patent publication US20250092014A1, “COMPOUNDS AND METHODS OF ACTIVATING LIPOPROTEIN LIPASE” (Metrea Biosciences, Inc., priority 2021, published 2025)

Each compound was assayed against T1, LPL:sGPIHBP1 complex (Homo sapiens, UniProt P06858) (assay: RB assay (LPL:sGPIHBP1 pre-incubated with ANGPTL4, RB substrate)). Conditions: read-out: RB qAC50.
T1 sequence (P06858 28-475): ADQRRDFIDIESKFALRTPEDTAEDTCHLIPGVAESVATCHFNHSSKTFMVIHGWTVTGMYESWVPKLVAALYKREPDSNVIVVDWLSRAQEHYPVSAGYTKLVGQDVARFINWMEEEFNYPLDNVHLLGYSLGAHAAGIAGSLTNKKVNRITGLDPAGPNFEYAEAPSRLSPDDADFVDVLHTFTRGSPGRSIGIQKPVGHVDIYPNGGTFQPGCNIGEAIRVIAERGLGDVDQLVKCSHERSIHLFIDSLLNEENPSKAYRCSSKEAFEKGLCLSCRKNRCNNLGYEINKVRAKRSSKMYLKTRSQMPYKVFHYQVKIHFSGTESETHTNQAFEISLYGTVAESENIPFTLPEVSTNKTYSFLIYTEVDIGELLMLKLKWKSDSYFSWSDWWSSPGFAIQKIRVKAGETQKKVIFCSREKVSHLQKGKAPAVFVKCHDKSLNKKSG
T1 sequence (Q8IV16 21-151 partner limits assumed): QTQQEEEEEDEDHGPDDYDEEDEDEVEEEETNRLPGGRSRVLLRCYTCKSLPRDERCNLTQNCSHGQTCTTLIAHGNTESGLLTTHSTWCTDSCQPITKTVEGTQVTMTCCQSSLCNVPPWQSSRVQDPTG
Assay type: biochemical
Description: The assay was performed in black 1536-well plates using purified proteins. To identify compounds that stimulate LPL activity either by directly activating LPL or by inhibiting the antagonist ANGPTL4, the LPL:sGPIHBP1 complex was pre-incubated with ANGPTL4 to decrease LPL activity by 80%. After a 60 min pre-incubation, the reaction was started by adding the RB substrate. 30 min after RB addition, the enzymatic reaction was stopped using SDS. Fluorescence intensity was measured 2 h after stopping the reaction.
20 or 40 nl of compound solution in 100% DMSO were placed in test plate. Then was added LPL:sGPIHBP1 to all wells (diluted in assay buffer to 5 nM; 2 μl/well). This was followed by an addition of ANGPTL4 to compounds and neutral controls (diluted in assay buffer to 20 nM; 1 μl/well). A buffer solution was added to the stimulator control (1 μl/well). The plates were then centrifuged and pre-incubated for 60 min at RT. The reaction was started by adding substrate to all wells (diluted in assay buffer to 40 μM, 1 μl/well). The plated were centrifuged (800 rpm for 1 min) and incubated 30 min at RT (=reaction time). The reaction was stopped by adding SDS to all wells (diluted in water to 2.5%, 2 μl/well); incubated 2 h at RT. The fluorescence intensity (ex 540 nm/em 590 nm) was measured on a Pherastar (BMG) using 5 flashes.

Row | Structure (SMILES) | EC50
1 | O=C(O)Cc1cc(F)ccc1NC(=O)c1ccc(N2CC3CCC2C3)c(NC(=O)c2nn(CC(F)(F)F)c3ccccc23)c1 (racemic) [Example 58] | 18 µM
2 | O=C(O)Cc1cc(Cl)ccc1NC(=O)c1ccc(N2CCCCC2)c(NC(=O)c2nn(CC(F)(F)F)c3ccccc23)c1 [Compound 23, 2-(5-chloro-2-(4-(piperidin-1-yl)-3-(1-(2,2,2-trifluoroethyl)-1H-indazole-3-carboxamido)benzamido)phenyl)acetic acid] | 4.6 µM
3 | O=C(O)Cc1cccc(F)c1NC(=O)c1ccc(N2CCCCC2)c(NC(=O)c2nn(CC(F)(F)F)c3ccccc23)c1 [Compound 24, 2-(3-fluoro-2-(4-(piperidin-1-yl)-3-(1-(2,2,2-trifluoroethyl)-1H-indazole-3-carboxamido)benzamido)phenyl)acetic acid] | 3.2 µM
4 | O=C(O)Cc1c(F)cccc1NC(=O)c1ccc(N2CCCCC2)c(NC(=O)c2nn(CC(F)(F)F)c3ccccc23)c1 [Compound 37, 2-(2-fluoro-6-(4-(piperidin-1-yl)-3-(1-(2,2,2-trifluoroethyl)-1H-indazole-3-carboxamido)benzamido)phenyl)acetic acid] | 5 µM
5 | O=C(O)Cc1ccc(F)cc1NC(=O)c1ccc(N2CCCCC2)c(NC(=O)c2nn(CC(F)(F)F)c3ccccc23)c1 [Compound 38, 2-(4-fluoro-2-(4-(piperidin-1-yl)-3-(1-(2,2,2-trifluoroethyl)-1H-indazole-3-carboxamido)benzamido)phenyl)acetic acid] | 3.6 µM
6 | O=C(O)Cc1cc(F)ccc1NC(=O)c1ccc(N2CCC2)c(NC(=O)c2nn(CC(F)(F)F)c3ccccc23)c1 [Compound 39, 2-(2-(4-(azetidin-1-yl)-3-(1-(2,2,2-trifluoroethyl)-1H-indazole-3-carboxamido)benzamido)-5-fluorophenyl)acetic acid] | > 25 µM
7 | O=C(O)Cc1cc(F)ccc1NC(=O)c1ccc(N2CCCCC2)c(C(=O)Nc2nn(CC(F)(F)F)c3ccccc23)c1 [Compound 41, 2-(5-fluoro-2-(4-(piperidin-1-yl)-3-((1-(2,2,2-trifluoroethyl)-1H-indazol-3-yl)carbamoyl)benzamido)phenyl)acetic acid] | 4.8 µM
8 | Cc1c(C(=O)Nc2ccc(F)cc2CC(=O)O)ccc(N2CCCCC2)c1NC(=O)c1nn(CC(F)(F)F)c2ccccc12 [Compound 42, 2-(5-fluoro-2-(2-methyl-4-(piperidin-1-yl)-3-(1-(2,2,2-trifluoroethyl)-1H-indazole-3-carboxamido)benzamido)phenyl)acetic acid] | > 25 µM
9 | O=C(O)Cc1cc(F)ccc1NC(=O)c1cc(NC(=O)c2nn(CC(F)(F)F)c3ccccc23)c(N2CCCCC2)cn1 [Compound 43, 2-(5-fluoro-2-(5-(piperidin-1-yl)-4-(1-(2,2,2-trifluoroethyl)-1H-indazole-3-carboxamido)picolinamido)phenyl)acetic acid] | > 7.1 µM
10 | O=C(O)Cc1cc(F)ccc1NC(=O)c1cnc(N2CCCCC2)c(NC(=O)c2nn(CC(F)(F)F)c3ccccc23)c1 [Compound 44, 2-(5-fluoro-2-(6-(piperidin-1-yl)-5-(1-(2,2,2-trifluoroethyl)-1H-indazole-3-carboxamido)nicotinamido)phenyl)acetic acid] | > 25 µM
11 | O=C(O)Cc1ccccc1C(=O)Nc1ccc(N2CCCCC2)c(C(=O)Nc2nn(CC(F)(F)F)c3ccccc23)c1 [Compound 51, 2-(2-((4-(piperidin-1-yl)-3-((1-(2,2,2-trifluoroethyl)-1H-indazol-3-yl)carbamoyl)phenyl)carbamoyl)phenyl)acetic acid] | 4.1 µM
12 | Cc1cc(N2CCCCC2)c(NC(=O)c2nn(CC(F)(F)F)c3ccccc23)cc1C(=O)Nc1ccc(F)cc1CC(=O)O [Compound 55, 2-(5-fluoro-2-(2-methyl-4-(piperidin-1-yl)-5-(1-(2,2,2-trifluoroethyl)-1H-indazole-3-carboxamido)benzamido)phenyl)acetic acid] | 5 µM
13 | O=C(O)Cc1cc(F)ccc1NC(=O)c1ccc(N2CCCCC2)c(NC(=O)c2nn(CC(F)F)c3ccccc23)c1 [Compound 96, 2-(2-(3-(1-(2,2-difluoroethyl)-1H-indazole-3-carboxamido)-4-(piperidin-1-yl)benzamido)-5-fluorophenyl)acetic acid] | 4.7 µM
14 | NCCn1nc(C(=O)Nc2cc(C(=O)Nc3ccc(F)cc3CC(=O)O)ccc2N2CCCCC2)c2ccccc21 [Compound 100, 2-(2-(3-(1-(2-aminoethyl)-1H-indazole-3-carboxamido)-4-(piperidin-1-yl)benzamido)-5-fluorophenyl)acetic acid] | > 25 µM
15 | O=C(O)Cc1cc(F)ccc1NC(=O)c1ccc(N2CCCCC2)c(NC(=O)c2nn(CCN3CCCC3)c3ccccc23)c1 [Compound 101, 2-(5-fluoro-2-(4-(piperidin-1-yl)-3-(1-(2-(pyrrolidin-1-yl)ethyl)-1H-indazole-3-carboxamido)benzamido)phenyl)acetic acid] | > 25 µM
16 | O=C(O)Cc1cc(F)ccc1NC(=O)c1ccc(N2CCCCC2)c(NC(=O)c2nn(CC3CCNCC3)c3ccccc23)c1 [Compound 103, 2-(5-fluoro-2-(4-(piperidin-1-yl)-3-(1-(piperidin-4-ylmethyl)-1H-indazole-3-carboxamido)benzamido)phenyl)acetic acid] | > 25 µM
17 | O=C(O)Cc1cc(F)ccc1NC(=O)c1ccc(N2CCCCC2)c(NC(=O)c2nn(CC(F)(F)F)c3ccncc23)c1 [Compound 107, 2-(5-fluoro-2-(4-(piperidin-1-yl)-3-(1-(2,2,2-trifluoroethyl)-1H-pyrazolo[4,3-c]pyridine-3-carboxamido)benzamido)phenyl)acetic acid] | > 7.1 µM

Continued, values first:

Row | EC50 | Structure (SMILES)
18 | 5.9 µM | O=C(O)Cc1cc(F)ccc1NC(=O)c1ccc(N2CCCCC2)c(NC(=O)c2nn(CC3CC3)c3ccccc23)c1 [Compound 94, 2-(2-(3-(1-(cyclopropylmethyl)-1H-indazole-3-carboxamido)-4-(piperidin-1-yl)benzamido)-5-fluorophenyl)acetic acid]
19 | 5 µM | CC(C)Cn1nc(C(=O)Nc2cc(C(=O)Nc3ccc(F)cc3CC(=O)O)ccc2N2CCCCC2)c2ccccc21 [Compound 95, 2-(5-fluoro-2-(3-(1-isobutyl-1H-indazole-3-carboxamido)-4-(piperidin-1-yl)benzamido)phenyl)acetic acid]
20 | 13 µM | O=C(O)Cc1cc(F)ccc1NC(=O)c1ccc(N2CCCCC2)c(NC(=O)c2nn(C3CC3)c3ccccc23)c1 [Compound 97, 2-(2-(3-(1-cyclopropyl-1H-indazole-3-carboxamido)-4-(piperidin-1-yl)benzamido)-5-fluorophenyl)acetic acid]
21 | 6.1 µM | O=C(O)Cc1cc(F)ccc1NC(=O)c1ccc(N2CCCCC2)c(NC(=O)c2nn(CC3CCC3)c3ccccc23)c1 [Compound 98, 2-(2-(3-(1-(cyclobutylmethyl)-1H-indazole-3-carboxamido)-4-(piperidin-1-yl)benzamido)-5-fluorophenyl)acetic acid]
22 | > 25 µM | O=C(O)Cc1cc(F)ccc1NC(=O)c1ccc(N2CCCCC2)c(NC(=O)c2nn(CCO)c3ccccc23)c1 [Compound 99, 2-(5-fluoro-2-(3-(1-(2-hydroxyethyl)-1H-indazole-3-carboxamido)-4-(piperidin-1-yl)benzamido)phenyl)acetic acid]
23 | 5.1 µM | N#CCn1nc(C(=O)Nc2cc(C(=O)Nc3ccc(F)cc3CC(=O)O)ccc2N2CCCCC2)c2ccccc21 [Compound 102, 2-(2-(3-(1-(cyanomethyl)-1H-indazole-3-carboxamido)-4-(piperidin-1-yl)benzamido)-5-fluorophenyl)acetic acid]
24 | 3.2 µM | O=C(O)Cc1cc(F)ccc1NC(=O)c1ccc(N2CCCCC2)c(NC(=O)c2nn(CC3CCOCC3)c3ccccc23)c1 [Compound 104, 2-(5-fluoro-2-(4-(piperidin-1-yl)-3-(1-((tetrahydro-2H-pyran-4-yl)methyl)-1H-indazole-3-carboxamido)benzamido)phenyl)acetic acid]
25 | 14 µM | COCCn1nc(C(=O)Nc2cc(C(=O)Nc3ccc(F)cc3CC(=O)O)ccc2N2CCCCC2)c2ccccc21 [Compound 105, 2-(5-fluoro-2-(3-(1-(2-methoxyethyl)-1H-indazole-3-carboxamido)-4-(piperidin-1-yl)benzamido)phenyl)acetic acid]
26 | 7.7 µM | CC(C)(O)Cn1nc(C(=O)Nc2cc(C(=O)Nc3ccc(F)cc3CC(=O)O)ccc2N2CCCCC2)c2ccccc21 [Compound 106, 2-(5-fluoro-2-(3-(1-(2-hydroxy-2-methylpropyl)-1H-indazole-3-carboxamido)-4-(piperidin-1-yl)benzamido)phenyl)acetic acid]
